For three molecules, Km results are on record in paper doi:10.1101/2021.09.28.462264v1 (biorxiv, 2021).

Conditions in all cases: 10 mM MgCl2, 100 mM Tris pH 8.0, 25 °C
The test system of experiment [1] is PcIBMS1. The experiment can be described thus: DTNB end-point spectrophotometric assay. The format is biochemical, Pogostemon cablin.
Experiment [2] deals with PcIPMS1.
The test system of experiment [3] is PcIBMS1.
Experiment [4] deals with PcIPMS1. The experiment can be described thus: DTNB end-point spectrophotometric assay. It counts as biochemical, Pogostemon cablin.

Read-outs that look alike come from different tables or passages of the source.

For the molecule `CC(C)C(=O)C(=O)O` [2-oxoisovalerate], the Km – broadly, the substrate concentration at which the rate is half of its maximum – is 1300 ± 128 µM with PcIBMS1 [1] (1 mM acetyl-CoA), 622 ± 58.3 µM in the experiment with PcIPMS1 [2] (1 mM acetyl-CoA), 444 ± 44.4 µM in the experiment on PcIBMS1 [3] (1 mM acetyl-CoA) and 288 ± 8.2 µM in the experiment on PcIPMS1 [4] (1 mM acetyl-CoA).
On to `CC(C)CC(=O)C(=O)O` [4-methyl-2-oxovalerate], for which the Km in the experiment on PcIBMS1 [1] (1 mM acetyl-CoA) turned out to be 140 ± 39.4 µM; with PcIBMS1 [3] (1 mM acetyl-CoA), 95 ± 17.9 µM.
With `CC(=O)SCCNC(=O)CCNC(=O)[C@H](O)C(C)(C)COP(=O)(O)OP(=O)(O)OC[C@H]1O[C@@H](n2cnc3c(N)ncnc32)[C@H](O)[C@@H]1OP(=O)(O)O` [acetyl-CoA], the Km was 145 ± 21.2 µM in the experiment with PcIBMS1 [1] (2 mM 4-methyl-2-oxovalerate), 22.7 ± 1.9 µM with PcIPMS1 [2] (2 mM 2-oxoisovalerate), 132 ± 6.5 µM in the experiment with PcIBMS1 [3] (2 mM 4-methyl-2-oxovalerate) and 48.1 ± 2.8 µM with PcIPMS1 [4] (2 mM 2-oxoisovalerate).
